Like-named read-outs stand apart in the source and are kept apart here.
Experiments:
MCF-7 cells = experiment: MTT assay, MCF-7 cells; type: cell-based; conditions: MCF7, human breast cancer cells, 72 h, read-out: Cytotoxic activity (IC50) MCF-7
Description: (§1) Primary human liver HL-7702 cells were purchased from SIBS (Shanghai Institutes for Biological Sciences, Shanghai, China) while MCF-7, A549, PC-9 and PC-3 cells were from ATCC (American Type Culture Collection, Rockville, MD, USA). HL-7702, PC-9 and A549 cells were incubated with Roswell Park Memorial Institute (RPMI) 1640 medium and MCF-7 were cultured in Dulbecco’s Modified Eagle’s Medium (DMEM) supplemented with 10% heat-inactivated fetal bovine serum (FBS) and 1% antibiotics (penicillin and streptomycin). PC-3, a human prostate adenocarcinoma cell, was maintained in Ham’s F-12 Medium supplemented with 10% FBS, 1% penicillin/streptomycin and 1% glutamine. All cells were cultured at 37 °C in an incubator containing 5% CO2. The cell viability was determined by using the MTT (methyl thiazolyl tetrazolium bromide) assay. Briefly, cells were seeded in 96-well plates (4 × 10^3 cells/well) overnight and exposed to the synthesized compounds with various concentrations. Camptothecin and dimethyl sulfoxide (DMSO) served as a positive control and a negative control respectively. After 72 h of incubation, 20 μL of MTT (5 mg/mL in phosphate buffer saline (PBS)) were added into each well. Dissolved yellowish MTT is converted to an insoluble purple formazan during incubation (4 h). In order to dissolve the formazan crystals, 100 μL of lysis solution (10% SDS (sodium dodecyl sulfate)-5% isobutyl alcohol-0.01M HCl) was added into per well. Finally, the optical density (OD) of solution in the plates was measured using a microplate reader at 570 nm after dissolving overnight. Cell viability was calculated by using the following formula: […].

A549 cells = experiment: MTT assay, A549 cells; type: cell-based; conditions: human non-small cell lung cancer cells, read-out: Cytotoxic activity (IC50) A549
Description: as §1

PC-3 cells = experiment: MTT assay, PC-3 cells; type: cell-based; conditions: human prostate cancer cells, 72 h, read-out: Cytotoxic activity (IC50) PC-3
Description: as §1

MTT assay, HL-7702 cells = type: cell-based, human; conditions: HL-7702 cells (normal liver cells); normal human liver cells, MTT, 72 h; read-out: Cytotoxic activity (IC50) HL-7702
Description: as §1

PC-9 cells = experiment: MTT assay, PC-9 cells; type: cell-based; conditions: human non-small cell lung cancer cells, 72 h, read-out: Cytotoxic activity (IC50) PC-9
Description: as §1

melting point	Structure (SMILES)	IC50 (MCF-7 cells)	IC50 (A549 cells; Homo sapiens, A549, 72 h)	IC50 (A549 cells; 72 h)	IC50 (PC-3 cells)	IC50 at 72 h (MTT assay, HL-7702 cells)	IC50 (PC-9 cells)
	Cc1ccc(-c2nc3sc4c(c3c(=O)n2CCc2ccc(O)cc2)CCCC4)cc1 [Compound 10]	27.47 ± 0.02 µM	< 10 µM	8.51 ± 0.16 µM	43.4 ± 2.73 µM	> 100 µM	49.7 ± 2.27 µM
	Cc1ccc(-c2nc3sc4c(c3c(=O)n2CCc2ccc(O)cc2)CCOC4)cc1 [Compound 24]	> 100 µM	32.9 ± 1.84 µM		> 100 µM	> 100 µM	> 100 µM
	O=c1c2c3c(sc2nc(-c2ccccc2)n1Cc1ccccc1)CCCC3 [Compound 2]	> 100 µM	> 100 µM		> 100 µM	> 100 µM	> 100 µM
	O=c1c2c3c(sc2nc(-c2ccc(Cl)cc2)n1CCc1ccc(O)cc1)CCCCC3 [Compound 19]	13.04 ± 0.11 µM	< 10 µM	6.26 ± 0.87 µM	25.1 ± 0.37 µM	19.16 ± 0.06 µM	26.7 ± 1.38 µM
	O=c1c2c3c(sc2nc(-c2cccs2)n1CCc1ccc(O)cc1)CCCC3 [Compound 12]	36.4 ± 1.41 µM	11.7 ± 0.12 µM		21.9 ± 1.76 µM	> 100 µM	54.2 ± 2.06 µM
185 to 187 °C	O=c1c2c3c(sc2nc(-c2cccs2)n1Cc1ccccc1)CCCC3 [Compound 5]	97.5 ± 0.13 µM	> 100 µM		> 100 µM	> 100 µM	81 ± 3.94 µM
	O=c1c2c3c(sc2nc(-c2cccc(Cl)c2)n1Cc1ccccc1)COCC3 [Compound 25]	> 100 µM	44 ± 0.71 µM		94.2 ± 1.83 µM	> 100 µM	> 100 µM
238 to 240 °C	O=c1c2c3c(sc2nc(-c2cccc(Cl)c2)n1CCc1ccc(O)cc1)CCCC3 [Compound 9]	30.7 ± 0.29 µM	19.6 ± 0.33 µM		> 100 µM	> 100 µM	> 100 µM
186 to 188 °C	Cc1cc(-c2nc3sc4c(c3c(=O)n2CCc2ccc(O)cc2)CCCCC4)sc1C [Compound 14]	46.1 ± 0.48 µM	49.8 ± 0.68 µM		84.68 ± 0.48 µM	68.64 ± 0.26 µM	86.33 ± 0.22 µM
	Cc1sc2nc(-c3ccc(F)cc3)n(Cc3ccccc3)c(=O)c2c1C [Compound 21]	> 100 µM	> 100 µM		> 100 µM	> 100 µM	> 100 µM
	Cc1cc(-c2nc3sc4c(c3c(=O)n2Cc2ccccc2)CCCC4)sc1C [Compound 6]	59.86 ± 0.34 µM	17.4 ± 0.88 µM		> 100 µM	> 100 µM	> 100 µM
	CC[C@@]1(O)C(=O)OCc2c1cc1n(c2=O)Cc2cc3ccccc3nc2-1 [CAMPTOTHECIN, camptothecin, reference compound]	0.26 ± 0.05 µM	0.1 ± 0.02 µM		0.85 ± 0.01 µM	0.11 ± 0.03 µM	0.09 ± 0.01 µM
251 to 253 °C	Cc1sc2nc(-c3ccccc3)n(CCc3ccc(O)cc3)c(=O)c2c1C [Compound 22]	21.9 ± 0.82 µM	> 100 µM		> 100 µM	> 100 µM	> 100 µM
	O=c1c2c3c(sc2nc(-c2ccc(F)cc2)n1CCc1ccc(O)cc1)CCCC3 [Compound 7]	10.4 ± 1.32 µM	< 10 µM	6.86 ± 0.98 µM	> 100 µM	> 100 µM	44.8 ± 4.47 µM
192 to 194 °C	O=c1c2c3c(sc2nc(-c2ccco2)n1Cc1ccccc1)CCCCC3 [Compound 11]	65.63 ± 0.26 µM	51.42 ± 0.46 µM		> 100 µM	> 100 µM	> 100 µM
	Cc1ccc(-c2nc3sc4c(c3c(=O)n2Cc2ccccc2)CCCCC4)o1 [Compound 18]	96.36 ± 0.72 µM	63.2 ± 0.03 µM		92 ± 2.34 µM	> 100 µM	58.28 ± 0.18 µM
	Cc1sc2nc(-c3ccc(Cl)cc3)n(CCc3ccc(O)cc3)c(=O)c2c1C [Compound 23]	70.64 ± 0.59 µM	46.14 ± 0.17 µM		> 100 µM	> 100 µM	> 100 µM
162 to 164 °C	Cc1sc2nc(-c3cccs3)n(Cc3ccccc3)c(=O)c2c1C [Compound 20]	> 100 µM	80.1 ± 0.83 µM		> 100 µM	> 100 µM	> 100 µM
161 to 163 °C	O=c1c2c3c(sc2nc(-c2ccc(C(F)(F)F)c(C(F)(F)F)c2)n1Cc1ccccc1)CCCC3 [Compound 4]	24.7 ± 2.04 µM	58.2 ± 0.65 µM		> 100 µM	> 100 µM	> 100 µM
146 to 148 °C	O=c1c2c3c(sc2nc(-c2ccc(F)cc2)n1Cc1ccccc1)CCCCC3 [Compound 17]	> 100 µM	> 100 µM		> 100 µM	> 100 µM	> 100 µM
	Cc1ccc(-c2nc3sc4c(c3c(=O)n2Cc2ccccc2)CCCC4)o1 [Compound 3]	> 100 µM	54.4 ± 1.83 µM		92.9 ± 2.29 µM	55.17 ± 0.5 µM	86.1 ± 1.28 µM
170 to 172 °C	O=c1c2c3c(sc2nc(-c2ccc(Cl)cc2)n1Cc1ccccc1)CCCCC3 [Compound 16]	> 100 µM	81 ± 1.04 µM		> 100 µM	> 100 µM	> 100 µM
	Cc1cc(-c2nc3sc4c(c3c(=O)n2CCc2ccc(O)cc2)CCCC4)sc1C [Compound 8]	> 100 µM	50.92 ± 0.07 µM		87.75 ± 0.63 µM	> 100 µM	92.97 ± 0.52 µM
	O=c1c2c3c(sc2nc(-c2ccc(Cl)cc2)n1Cc1ccccc1)CCCC3 [Compound 1]	> 100 µM	> 100 µM		> 100 µM	> 100 µM	> 100 µM
	Cc1cc(-c2nc3sc4c(c3c(=O)n2Cc2ccccc2)CCCCC4)sc1C [Compound 13]	75.94 ± 0.17 µM	49.86 ± 0.3 µM		92.5 ± 1.89 µM	> 100 µM	> 100 µM

From PMC6843832, “Synthesis of Novel Analogs of Thieno[2,3-d] Pyrimidin-4(3H)-ones as Selective Inhibitors of Cancer Cell Growth” (Biomolecules, 2019)
